Earlier results, collected in the CATMoS acute toxicity set (Mansouri et al. 2021).
Values joined by “and” are separate entries in the source; they are usually repeats but may differ in a detail not shown here. Equal entries are not always repeated.

Experiment: rat acute oral toxicity
Conditions: in vivo

Structure (SMILES)	LD50
Oc1ccc(Cc2ccc(O)cc2)cc1	4950 mg/kg
CCC(C)(O)c1ccccc1 (stereo not given)	1400 mg/kg
CCCCCCCCCCCCOC(=O)Cc1ccc(N(CCCl)CCCl)cc1	72 mg/kg
CSc1ccc(OP(C)(C)=S)cc1C	175 mg/kg
CCCCCCCCCCCC[N+](CCO)(CCO)Cc1ccccc1	750 mg/kg
O=CN(c1ncnc2c1ncn2C1CC1)C1CC1	175 mg/kg
CC(=O)c1cccc(N=Nc2ccc(N(C)C)cc2)c1	4820 mg/kg
CC(C(=O)O)c1ccc2c(c1)OCc1ccccc1C2=O (stereo not given)	34 mg/kg
CCCCCCCc1cc(C)c(O)c(C)c1	1600 mg/kg
CN1CCN(N=O)CC1	100 mg/kg
c1ccc(C2(c3ccccc3)OCC(C3CCCCN3)O2)cc1 (stereo not given)	310 mg/kg and 280 mg/kg
CC(=O)C1(O)Cc2c(O)c3c(c(O)c2C(OC2CC(N)C(O)C(C)O2)C1)C(=O)c1c(O)cccc1C3=O (stereo not given)	23 mg/kg
OC(Nc1nccs1)C(Cl)(Cl)Cl (stereo not given)	2500 mg/kg
COc1ccccc1OC1CCN(CCCC(=O)c2ccc(F)cc2)C1 (stereo not given)	241 mg/kg
C=C1C(=CC=C2CCCC3(C)C2CCC3C(C)CCCC(O)(C(F)(F)F)C(F)(F)F)CC(O)CC1O (stereo not given)	0.0417 mg/kg
CCOP(=S)(OCC)SC(=O)CN(C)C(N)=O	16 mg/kg
C[N+](C)(C)CCC[N+]1(C)CC2C3C=CC(CC3)C2C1 (stereo not given)	1730 mg/kg
COc1ccccc1NC(=O)C(N=Nc1ccc(-c2ccc(N=NC(C(C)=O)C(=O)Nc3ccccc3OC)c(Cl)c2)cc1Cl)C(C)=O (stereo not given)	2230 mg/kg
C=C(C)C(=O)CC	419 mg/kg
O=C(O)c1nn(Cc2ccc(Cl)cc2Cl)c2ccccc12	1700 mg/kg
FC(F)(F)c1nc2c(Cl)c(Br)c(Cl)cc2[nH]1	8.78 mg/kg
CCOP(=O)(OCC)C(SCC)(P(=O)(OCC)OCC)P(=O)(OCC)OCC	7.25 mg/kg
CC=C(C)C(=O)N1CCCc2cc(C)ccc21	2200 mg/kg
Nc1cc(N)cc(C(F)(F)F)c1	380 mg/kg
Cc1n[nH]c(=O)c2noc(C)c12	1000 mg/kg

Structure (SMILES)	LD50
CCOc1ccc(C(CN(C)C)C(C)CC)cc1Cl (stereo not given)	451 mg/kg
O=C(O)C(S)C(S)C(=O)O (stereo not given)	4000 mg/kg
OCc1ccc(OCCn2ccnc2)cc1	4860 mg/kg
Nc1cc(-c2cccs2)no1	1850 mg/kg
CCC(C)c1ccccc1 (stereo not given)	2240 mg/kg
CCCCCCOCCOC(=O)CCCCC(=O)OCCOCCCCCC	4290 mg/kg
CC(=O)OC1c2cccc(O)c2C(=O)c2c(O)cccc21	347 mg/kg
Cn1c(=O)c2c(ncn2CCCCCN2CCN(c3ccc(Cl)cc3)CC2)n(C)c1=O	353 mg/kg
CCCCCCCCSCCO	8530 mg/kg
N=C(O)CCC/N=C(\c1ccc(Cl)cc1)c1cc(F)ccc1O	1350 mg/kg
CC(C)CC(O)CC(CC(C)C)CC(C)C (stereo not given)	16300 mg/kg
O=P(OCC(Cl)CCl)(OCC(Cl)CCl)OCC(Cl)CCl (stereo not given)	2830 mg/kg
CNC(=O)ON=C(C)C(C)SC (stereo not given)	153 mg/kg
CC(=O)Oc1cccc(Oc2ccc(C(F)(F)F)cc2Cl)c1	2500 mg/kg
COc1ccc(C[C@H]2NC[C@H](O)[C@H]2OC(C)=O)cc1	72 mg/kg
CCOP(=O)(OCC)SC(C)(C)C	127 mg/kg
CSCC[C@H](N)C(=O)O	36000 mg/kg
CC(=O)c1ccc2c(c1)N(CCCN1CCN(C)CC1)c1ccccc1S2	650 mg/kg
CN(C)CCOC(C)(c1ccccc1)c1ccc(Cl)cc1 (stereo not given)	1000 mg/kg
CCOc1cc(C(C)(C)C)ccc1C1COC(c2c(F)cccc2F)=N1 (stereo not given)	4270 mg/kg
Nc1cc(Cl)c([N+](=O)[O-])cc1Cl	2820 mg/kg
CCSC(=S)N(CC)CC	712 mg/kg
C=CC(C)CCCC(C)(C)O (stereo not given)	3600 mg/kg
CC1(C)C(=O)N(Cl)C(=O)N1Br	1390 mg/kg
CNC(=O)Oc1cccc2c(O)cccc12	297 mg/kg

Structure (SMILES)	LD50
CCCCNP(=S)(OCC)Sc1ccccc1 (stereo not given)	300 mg/kg
CCN(CC)CCC(CC=C(C)C)(C(N)=O)c1cccc2ccccc12 (stereo not given)	71 mg/kg
C=CCOC(=O)CC(C)C	230 mg/kg
CC(C)(CO)S(C)(=O)=O	11300 mg/kg
S=c1[nH]c2cc(Cl)ccc2o1	1000 mg/kg
C=C(C)C(=O)OC(=O)COC(C)C	9000 mg/kg
CCO[Si](C)(CCCCN)OCC	6500 mg/kg
CC(C)c1ccc(C=O)cc1	1390 mg/kg
CC1CCC(=O)CC1	800 mg/kg
CCOCCOCCCO	7060 mg/kg
COc1ccc(O)c(C(N)=O)c1	1900 mg/kg
CCOC(=O)Nc1ccc2c(c1)N(C(=O)CN(C)C)c1ccccc1CC2	78 mg/kg
O=C1NCCCN1Cc1ccc(Cl)c(Cl)c1	815 mg/kg
Cc1nc(C)c(C(=O)Nc2ccccc2)s1	3930 mg/kg
CC1=CCC(=C(C)C)CC1	4390 mg/kg
O=C(O)C1=CCCN(CCOC(c2ccc(C(F)(F)F)cc2)c2ccc(C(F)(F)F)cc2)C1	894 mg/kg
CCOP(=S)(OCC)OCCS(=O)(=O)CC	90 mg/kg
CCCOC(=O)CCC	15000 mg/kg
Cc1ccc2c(Cl)cc(Cl)c(O)c2n1	660 mg/kg
CN(C)CCCN1c2ccccc2Sc2cccnc21	610 mg/kg
CN(N=O)C(N)=O	110 mg/kg
CN(N=O)C(=O)C(=O)N(C)N=O	96 mg/kg
CON=CC1=CCCN(OC(=O)Nc2ccc(Cl)cc2)C1	500 mg/kg
O=C(O)/C=C/C(=O)O	3850 mg/kg
Oc1ccc(Cl)cc1-c1ccccc1	3500 mg/kg

Structure (SMILES)	LD50
O=C(OCC(COC(=O)c1ccccc1)(COC(=O)c1ccccc1)COC(=O)c1ccccc1)c1ccccc1	1160 mg/kg
Cl[Si](Cl)(Cl)C1CC=CCC1 (stereo not given)	2830 mg/kg
CC(C(=O)OCCN1CCN(CCOC(=O)C(C)c2cccc3ccccc23)CC1)c1cccc2ccccc12 (stereo not given)	5550 mg/kg
C1CCc2c(OCCN3CCOCC3)n[nH]c2C1	1600 mg/kg
Nc1ccc(OCCO)c(N)c1	1000 mg/kg
COC(OC)c1ccccc1[N+](=O)[O-]	3420 mg/kg
C[Si]1(C)N[Si](C)(C)N[Si](C)(C)N1	500 mg/kg
CNC(=O)ON=C1CCCC1(C)[N+](=O)[O-] (stereo not given)	4 mg/kg
CCN(CCCCOC(=O)c1ccc(OC)c(OC)c1)C(C)Cc1ccc(OC)cc1 (stereo not given)	1540 mg/kg
C/C=C/C=C/C(=O)O	7360 mg/kg and 4340 mg/kg and 7160 mg/kg
CCOP(=O)(OCC)OC(=C(Cl)Cl)c1cc(Cl)cc(Cl)c1	20 mg/kg
C[Si](Cl)(Cl)Cl	800 mg/kg
CNC(=O)ON=C1CCCC1(C)C#N (stereo not given)	18 mg/kg
Nc1ccc([N+](=O)[O-])cc1Cl	6430 mg/kg
CCOC(N)=C1Sc2ccccc2C1=O	4000 mg/kg
O=C(Cl)C(c1ccccc1)c1ccccc1	6330 mg/kg
CN(C)CC[C@@H](c1ccc(Br)cc1)c1ccccn1	191 mg/kg
COc1ccc2c(c1)OC(C)(C)C(c1ccccc1)=C2c1ccc(OCC(O)CNC(C)C)cc1 (stereo not given)	1000 mg/kg
CCN(C(C)=O)c1c(I)cc(I)c(OCCOC(C)C(=O)O)c1I (stereo not given)	1600 mg/kg
CNC(=O)Oc1cc(C(C)C)ccc1C	250 mg/kg
ClC(Cl)(Cl)CC1CO1 (stereo not given)	1500 mg/kg
CCNc1nc(NCC)nc(SC)n1	750 mg/kg
CCOC(=O)C(C)N(C(=O)c1ccccc1)c1ccc(Cl)c(Cl)c1 (stereo not given)	1550 mg/kg
CCCCCCCCCOC(=O)C1=CNC=C(C(=O)NC2CCCC2)C1c1ccccc1[N+](=O)[O-] (stereo not given)	10 mg/kg
CCCCOC(=O)n1c(Br)nc(Br)c1Br	44 mg/kg

Structure (SMILES)	LD50
C=CCOC(=O)CCC1CCCCC1	585 mg/kg
Nc1nc2c(Cl)cccc2o1	500 mg/kg
CC(=O)Nc1ccc2nc(C(F)(F)F)[nH]c2c1	23.8 mg/kg
CCCSP(=O)(OC)SCCC	6.8 mg/kg
CCOC(C1=NCCCN1)c1cccc2ccccc12 (stereo not given)	375 mg/kg
O=C(Cc1ccccc1)OC1=C(OC(=O)Cc2ccccc2)C(=O)OC1=O	8000 mg/kg
COP(=S)(OC(C)C)SCN1C(=O)c2ccccc2C1=O (stereo not given)	50 mg/kg
Cc1ccc(C)n1Nc1ccc(N2CCOCC2)nn1	2250 mg/kg
C=C(Cl)C(=O)Nc1ccc(OC)cc1	82 mg/kg
Cc1ccc(C2=CCN(CC=Cc3ccc4c(c3)CCC(=O)N4)CC2)cc1	500 mg/kg
CCCCC(CC)COC(C[n+]1ccccc1)c1ccc(C2CCCCC2)cc1 (stereo not given)	250 mg/kg
O=C(OCC(O)CO)c1ccccc1Nc1ccnc2cc(Cl)ccc12 (stereo not given)	2300 mg/kg
CCSC(=O)NC1CCCCC1	2300 mg/kg
Cc1nn(-c2ccccc2)c(=O)c2noc(C)c12	1000 mg/kg
O=C(NCCO)c1ccccc1O	4300 mg/kg
O=C1CN(N=Cc2ccc(-c3ccc([N+](=O)[O-])cc3)o2)C(=O)N1	7430 mg/kg
O=P(OCCCl)(OCCCl)OCC(CO)(CO)COP(=O)(OCCCl)OCCCl	4920 mg/kg
CC(C)=NN=C(C)C	423 mg/kg
CNC(=O)Oc1cc(C(C)(C)C)cc(C(C)(C)C)c1	1800 mg/kg
CCCCCCCCOP(OCC(CC)CCCC)Oc1ccccc1 (stereo not given)	7000 mg/kg
CCN(CC)CCOc1nn(-c2cccc(C(F)(F)F)c2)c2ncccc12	1200 mg/kg
CS(=O)(=O)c1ccc(O)cc1	3160 mg/kg
O=C1CCC(=O)N1	14000 mg/kg
CCS(=O)CCSP(=S)(OC)OC (stereo not given)	100 mg/kg
CCOC(=O)c1nocc1C(=O)c1ccccc1	1000 mg/kg

Structure (SMILES)	LD50
CNC(=O)Oc1ccccc1C1OCCS1 (stereo not given)	56 mg/kg
CC(=Cc1ccccc1)CC(=O)N1CCOCC1	1000 mg/kg
C#CCOP(=O)(OCC(C)C)c1ccccc1 (stereo not given)	600 mg/kg
CNC(=C[N+](=O)[O-])NCCSCc1csc(CN(C)C)n1	1650 mg/kg
CCOC(=O)C(Cl)=NNc1ccccc1	13000 mg/kg
CCC[N+](=O)[O-]	455 mg/kg
CCc1cccc2cc(C(O)CNC(C)(C)C)oc12 (stereo not given)	750 mg/kg
C=C(C)C(=O)OCC(C)C	9590 mg/kg
CCC(C(=O)O)c1ccc(CC(C)C)cc1 (stereo not given)	1600 mg/kg
Oc1cccc(Oc2ccccc2)c1	1210 mg/kg
CCCCSC(C)C1(CC)C(=O)N=C(O)NC1=O (stereo not given)	582 mg/kg
O=C1CCC(C(=O)NC2CC2c2ccccc2)N1 (stereo not given)	96 mg/kg
Cc1ccc(NCCCc2ccccc2)cc1	1600 mg/kg
C=CC(=O)OCCN(CC)CC	770 mg/kg
CCCCC(CC)COCCCN (stereo not given)	320 mg/kg
CC(C)=CCC(CCN(C)C)(C(N)=O)c1cccc2ccccc12 (stereo not given)	143 mg/kg
CN1CCCN(C(c2ccccc2)c2ccc(Cl)cc2)CC1 (stereo not given)	490 mg/kg
Cc1c[nH]c2ccccc12	3450 mg/kg
CC1(C)COS(=O)(=O)OC1	10 mg/kg
O=C(O)CCCC(=O)O	6000 mg/kg
Cc1ccc(Cl)cc1N	464 mg/kg
CC1COn2c1nc1ccccc1c2=O (stereo not given)	765 mg/kg
COP(=S)(OC)SCSc1cc(Cl)ccc1Cl	220 mg/kg
CNC(=O)c1cc(Cl)ccn1	500 mg/kg
CCN(CC)CCOc1ccc(C(=C(Cl)c2ccccc2)c2ccccc2)cc1	5750 mg/kg
